The subject of series [1] is carrageenan edema in the rat's paw. Put plainly: carrageenan edema in the rat's paw, physical forms of PGA and Curcumin. It is filed as in vivo. Particulars: for edema as a percentage of the edema produced only by carrageenan (value of 100) / pharmacological effect on carrageenan edema (in words): rat; for edema as a percentage of the edema produced only by carrageenan (value of 100): PGA 30, PGA-m 20, CUR-m 10, PGACUR-m 30, PGA-sm 20 mg/kg; for pharmacological effect on carrageenan edema (in words): PGA 30, PGA-m 20, PGA-sm 20, CUR 10, PGACUR-m 30 mg/kg. The method, then:
The experimental model of carrageenan edema was used in the rat's paw, which determines epithelial dysfunction at the paw level.
The experimental model of carrageenan edema in the paw was induced by sub-plantar injection of a carrageenan solution (containing 50 μl of sterile saline containing 1% carrageenan) into the right paw of the animal (rat).
At specific time intervals the plantar volume was measured by a plethysmometer (Ugo Basile, Milan, Italy). The increase in plantar volume was evaluated as the difference between the value obtained in the specific time intervals and the volume at baseline (time 0) measured immediately before the administration of carrageenan.
The following physical forms of N-palmitoyl-D-glucosamine were tested: • Non-micronized N-palmitoyl-D-glucosamine (PGA); • Micronized N-palmitoyl-D-glucosamine (PGA-m); • N-palmitoyl-D-glucosamine co-micronized with Curcumin (PGACUR-m); • N-palmitoyl-D-glucosamine in a sub-micron form (PGA-sm).
The following physical form of Curcumin was also tested: • Micronized Curcumin (CUR-m)
In all cases PGA was tested as a PGA/fatty acid mixture.
The thus obtained results, expressed as a percentage of the edema produced only by carrageenan (indicated with a value of 100), are as follows: […]
A general note: In the carrageenan paw model, swelling and tenderness develop within hours.

The test system is the same in series [2]. Put plainly: carrageenan edema in the rat's paw, PGA with or without Polydatin. It is filed as in vivo. To be noted: Wistar rat, doses per group b126-b129, unit assumed. As to the method: Also in this case, the experimental model of carrageenan edema in the rat's paw was used, which determines epithelial dysfunction at the paw level.
The edema was induced by the sub-plantar injection of 50 μl of an aqueous 1% carrageenan solution. At time intervals (30 min, 1 h, 2 h, 3 h, 4 h, 5 h, 6 h) the volume of the injected paw was evaluated by means of a plethysmometer (Ugo Basile, Milan—Italy). The following physical forms of N-palmitoyl-D-glucosamine with or without Polydatin were tested in groups of 10 animals (Wistar strain weighing between 130 and 160 g) for each group, in the dosages indicated in brackets:
Group B) Carrageenan+micronized Palmitoylglucosamine (10 mg/kg)
Group C) Carrageenan+micronized Polydatin (1 mg/kg)
Group D) Carrageenan+Palmitoylglucosamine (10 mg/kg)+Polydatin (1 mg/kg) [mixed]
Group E) Carrageenan+Palmitoylglucosamine and co-micronized Polydatin [10:1] (11 mg/kg)

With `CCCCCCCCCCCCCCCC(=O)N[C@H]1C(O)O[C@H](CO)[C@@H](O)[C@@H]1O` (stereo partly drawn) [PGA-sm, N-palmitoyl-D-glucosamine], the “edema as a percentage of the edema produced only by carrageenan (value of 100)” value (“edema as a percentage” below) in series [1] (30 min) is 100.0%; in series [1] (1 hr), 100.0%; in series [1] (2 hr), 98.0%; in series [1] (3 hr), 97.0%; in series [1] (4 hr), 98.0%; in series [1] (5 hr) it was 98.0%. In addition, the figures for the “pharmacological effect on carrageenan edema (in words)” value (shortened to “pharmacological effect”) in series [1], in series [1] (listed as sub-micron PGA) and in series [1] (listed as sub-micronized PGA) were “no significant pharmacological effect”, “markedly pejorative activity compared to the micronized PGA” and “almost total inactivity”, respectively.
`OC[C@H]1O[C@@H](Oc2cc(O)cc(/C=C/c3ccc(O)cc3)c2)[C@H](O)[C@@H](O)[C@@H]1O` [Group C), Polydatin, reference compound]: the Paw volume turned out to be 0.21 mL in series [2] (30 min from treatment); 0.32 mL in series [2] (1 h from treatment); 0.69 mL in series [2] (2 h from treatment); 1.03 mL in series [2] (3 h from treatment); 1.19 mL in series [2] (4 h from treatment); 1.28 mL in series [2] (5 h from treatment). The molecule further returned a Paw volume in series [2] (6 h from treatment) of 0.95 mL.
With `COc1cc(/C=C/C(=O)CC(=O)/C=C/c2ccc(O)c(OC)c2)ccc1O` [CUR-m, Curcumin, reference compound], the “edema as a percentage” value in series [1] (30 min) is listed as 100.3%; in series [1] (1 hr), 95.4%; in series [1] (2 hr) it was 95.1%; in series [1] (3 hr), 94.8%; in series [1] (4 hr), 96.2%; in series [1] (5 hr) it was 97.4%. In addition, the “pharmacological effect” value in series [1] (listed as micronized CUR) is given as “no significant pharmacological effect”; in series [1] (listed as micronized Curcumin) it was “almost total inactivity”.
For the molecule `CCCCCCCCCCCCCCCC(=O)N[C@H]1C(O)O[C@H](CO)[C@@H](O)[C@@H]1O` (stereo partly drawn) [PGA, N-palmitoyl-D-glucosamine], the melting point is 202 °C (dec.). In addition, in series [1] (30 min), the “edema as a percentage” value came out at 100.0%. Moreover, the “edema as a percentage” value in series [1] (1 hr) turned out to be 100.0%. In addition, in series [1] (2 hr), the “edema as a percentage” value stood at 100.0%. In series [1] (3 hr), the “edema as a percentage” value was 100.0%. The “edema as a percentage” value in series [1] (4 hr) is reported as 100.0%. Moreover, the “edema as a percentage” value in series [1] (5 hr) stood at 100.0%. The “pharmacological effect” value in series [1] (listed as PGA (non-micronized)) was “no pharmacological effect”. In addition, the “pharmacological effect” value in series [1] (listed as non-micronized PGA) is “total inactivity”.
As for `CCCCCCCCCCCCCCCC(=O)N[C@H]1C(O)O[C@H](CO)[C@@H](O)[C@@H]1O` (stereo partly drawn) [PGA-m, N-palmitoyl-D-glucosamine], the “edema as a percentage” value in series [1] (30 min) amounted to 100.0%; in series [1] (1 hr), 92.2%; in series [1] (2 hr), 80.1%; in series [1] (3 hr), 71.5%; in series [1] (4 hr) it was 70.4%; in series [1] (5 hr), 75.5%. Moreover, the “reduction of the Carrageenan edema” value in series [1] (PGA-m 20 mg/Kg, co-micronized PGA-m 20 mg/Kg + CUR 10 mg/kg, corresponds to the 5 hr values of Table 1) amounted to 24.5%. Moreover, in series [1], the “pharmacological effect” value is “apparent pharmacological effect”. The Paw volume in series [2] (30 min from treatment) turned out to be 0.23 mL; in series [2] (1 h from treatment) it was 0.33 mL; in series [2] (2 h from treatment), 0.81 mL; in series [2] (3 h from treatment) it was 1 mL; in series [2] (4 h from treatment), 1.21 mL; in series [2] (5 h from treatment), 1.33 mL. Further, in series [2] (6 h from treatment), the Paw volume stood at 1.05 mL.

In general, melting point refers to the temperature, or range, at which the solid turns liquid.

Source of the values: patent US11744840B2, “N-palmitoyl-D-glucosamine in a micronized form” (Innovet Italia S.R.L., priority 2018, dated 2023).
